Experimental data: ChEMBL document CHEMBL1148727, “Discovery of 1,4-dihydroxy-2-naphthoate [corrected] prenyltransferase inhibitors: new drug leads for multidrug-resistant gram-positive pathogens” (2007)
Values after ≈ are worked out from the molar mass of the structure shown.

Tests used:
Format in all cases: functional
[1] = tested on: Mycolicibacterium smegmatis; assay: Antibacterial activity against Mycobacterium smegmatis Takeo after 18 hrs by agar plate dilution method
[2] = tested on: Mycobacterium intracellulare; assay: Antibacterial activity against Mycobacterium intracellular ATCC 15984 after 18 hrs by agar plate dilution method; details: ATCC 15984, 18 h
Staphylococcus aureus [3] = assay: Antibacterial activity against methicillin-resistant Staphylococcus aureus Mu50 after 18 hrs by agar plate dilution method; details: Mu50, 18 h
Staphylococcus aureus [4] = assay: Antibacterial activity against Staphylococcus aureus FDA209P after 18 hrs by agar plate dilution method
Enterococcus faecalis [5] = assay: Antibacterial activity against vancomycin-resistant Enterococcus faecalis NCTC-12201 after 18 hrs by agar plate dilution method
[6] = tested on: Mycolicibacterium fortuitum; assay: Antibacterial activity against Mycobacterium fortuitum NIHJ1615 after 18 hrs by agar plate dilution method
[7] = tested on: Mycobacterium tuberculosis; assay: Antibacterial activity against Mycobacterium tuberculosis H37Rv after 18 hrs by agar plate dilution method
Mycolicibacterium aurum = assay: Antibacterial activity against Mycobacterium aurum after 18 hrs by agar plate dilution method
Staphylococcus aureus [8] = assay: Antibacterial activity against Staphylococcus aureus Smith after 18 hrs by agar plate dilution method
Enterococcus faecalis [9] = assay: Antibacterial activity against vancomycin-resistant Enterococcus faecalis NCTC-12203 after 18 hrs by agar plate dilution method
Mycobacterium avium = assay: Antibacterial activity against Mycobacterium avium Flamingo after 18 hrs by agar plate dilution method
Staphylococcus aureus [10] = assay: Antibacterial activity against Linezolid and methicillin-resistant Staphylococcus aureus 06 after 18 hrs by agar plate dilution method
Klebsiella pneumoniae = assay: Antibacterial activity against Klebsiella pneumoniae NCTN9632 by agar plate dilution method
Staphylococcus aureus [11] = assay: Antibacterial activity against methicillin-resistant Staphylococcus aureus after 18 hrs by agar plate dilution method
Staphylococcus aureus [12] = assay: Antibacterial activity against vancomycin-resistant Staphylococcus aureus 70 after 18 hrs by agar plate dilution method
Staphylococcus aureus [13] = assay: Antibacterial activity against methicillin-resistant Staphylococcus aureus 92-1191 after 18 hrs by agar plate dilution method
Proteus mirabilis = assay: Antibacterial activity against Proteus mirabilis IFO3849 by agar plate dilution method
Escherichia coli = assay: Antibacterial activity against Escherichia coli NIHJ JC2 by agar plate dilution method
Staphylococcus aureus [14] = assay: Antibacterial activity against Staphylococcus aureus macrolide-resistance after 18 hrs by agar plate dilution method
Pseudomonas aeruginosa = assay: Antibacterial activity against Pseudomonas aeruginosa 46001 by agar plate dilution method

| SMILES | MIC [1] [µg/mL] | MIC [2] [µg/mL] | MIC (Staphylococcus aureus [3]) [µg/mL] | MIC (Staphylococcus aureus [4]) [µg/mL] | MIC (Enterococcus faecalis [5]) [µg/mL] | MIC [6] [µg/mL] | MIC [7] [µg/mL] | MIC (Mycolicibacterium aurum) [µg/mL] | MIC (Staphylococcus aureus [8]) [µg/mL] | MIC (Enterococcus faecalis [9]) [µg/mL] | MIC (Mycobacterium avium) [µg/mL] | MIC (Staphylococcus aureus [10]) [µg/mL] | MIC (Klebsiella pneumoniae) [µg/mL] | MIC (Staphylococcus aureus [11]) [µg/mL] | MIC (Staphylococcus aureus [12]) [µg/mL] | MIC (Staphylococcus aureus [13]) [µg/mL] | MIC (Proteus mirabilis) [µg/mL] | MIC (Escherichia coli) [µg/mL] | MIC (Staphylococcus aureus [14]) [µg/mL] | MIC (Pseudomonas aeruginosa) [µg/mL] |
| --- | --- | --- | --- | --- | --- | --- | --- | --- | --- | --- | --- | --- | --- | --- | --- | --- | --- | --- | --- | --- |
| C=CCN(C)CCCCCCCCOc1ccc(C(=O)c2ccc(Cl)cc2)c(O)c1 | 12.5 (≈ 29.1 µM) | 6.3 (≈ 14.7 µM) | > 12.5 | > 12.5 | > 12.5 | 12.5 (≈ 29.1 µM) | 1.5 (≈ 3.49 µM) | 6.3 (≈ 14.7 µM) | > 12.5 | > 12.5 | 6.3 (≈ 14.7 µM) | – | – | – | – | – | – | – | – | – |
| CN(CCCOC/C=C/COc1ccc(C(=O)c2ccc(Cl)cc2)c(O)c1)CCc1ccc(F)cc1 | – | – | 8 (≈ 15.6 µM) | 4 (≈ 7.81 µM) | 8 (≈ 15.6 µM) | – | 12.5 (≈ 24.4 µM) | – | 8 (≈ 15.6 µM) | 2 (≈ 3.91 µM) | – | 8 (≈ 15.6 µM) | > 128 | 4 (≈ 7.81 µM) | 4 (≈ 7.81 µM) | 4 (≈ 7.81 µM) | > 128 | > 128 | 4 (≈ 7.81 µM) | > 128 |
| NNC(=O)c1ccncc1 [ISONIAZID] | 12.5 (≈ 91.1 µM) | 12.5 (≈ 91.1 µM) | – | – | – | 6.3 (≈ 45.9 µM) | 0.1 (≈ 0.729 µM) | 6.3 (≈ 45.9 µM) | – | – | > 25 | – | – | – | – | – | – | – | – | – |
| CC(=O)NC[C@H]1CN(c2ccc(N3CCOCC3)c(F)c2)C(=O)O1 [LINEZOLID] | – | – | – | – | – | – | – | – | – | – | – | 32 (≈ 94.9 µM) | > 128 | – | – | – | 128 (≈ 379 µM) | 128 (≈ 379 µM) | – | > 128 |
| CO[C@H]1/C=C/O[C@@]2(C)Oc3c(C)c(O)c4c(O)c(c(/C=N/N5CCN(C)CC5)c(O)c4c3C2=O)NC(=O)/C(C)=C\C=C\[C@H](C)[C@H](O)[C@@H](C)[C@@H](O)[C@@H](C)[C@H](OC(C)=O)[C@@H]1C [RIFAMPIN] | > 25 | 3.1 (≈ 3.77 µM) | – | – | – | > 25 | 0.2 (≈ 0.243 µM) | 0.78 (≈ 0.948 µM) | – | – | 3.1 (≈ 3.77 µM) | – | – | – | – | – | – | – | – | – |
| CN[C@H](CC(C)C)C(=O)N[C@H]1C(=O)N[C@@H](CC(N)=O)C(=O)N[C@H]2C(=O)N[C@H]3C(=O)N[C@H](C(=O)N[C@H](C(=O)O)c4cc(O)cc(O)c4-c4cc3ccc4O)[C@H](O)c3ccc(c(Cl)c3)Oc3cc2cc(c3O[C@@H]2O[C@H](CO)[C@@H](O)[C@H](O)[C@H]2O[C@H]2C[C@](C)(N)[C@H](O)[C@H](C)O2)Oc2ccc(cc2Cl)[C@H]1O [VANCOMYCIN] | – | – | – | – | > 128 | – | – | – | – | > 128 | – | – | > 128 | – | – | – | > 128 | > 128 | – | > 128 |
